Experimental data published in ChEMBL document CHEMBL1201862, “PubChem BioAssay data set” (2004).
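The compound was tested at five concentrations on cells cultured in 96-well plates, with a 48-hour exposure period. GI50 marks 50% less growth.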 Calls of active or inactive are those of the source. No stated cut-off is given here; in the data, active = GI50 up to about 1.1 µM and inactive = higher.

Key:
Test in all cases: NCI-60 cell line screen, 48 h
[1] = test system: SW-620
[2] = test system: DU-145
[3] = test system: UACC-257
[4] = test system: A549
[5] = test system: Hs-578T
[6] = test system: SK-OV-3
[7] = test system: SK-MEL-5
[8] = test system: HCT-116
[9] = test system: SR
[10] = test system: Malme-3M
[11] = test system: OVCAR-3
[12] = test system: M14
[13] = test system: SF-295
[14] = test system: MDA-MB-435
[15] = test system: MDA-MB-231
[16] = test system: SNB-19
[17] = test system: ACHN
[18] = test system: SNB-75
[19] = test system: CCRF-CEM
[20] = test system: 786-0
[21] = test system: NCI-H23
[22] = test system: OVCAR-5
[23] = test system: A498
[24] = test system: MDA-N
[25] = test system: KM12
[26] = test system: CAKI-1
[27] = test system: NCI/ADR-RES
[28] = test system: NCI-H460
[29] = test system: MOLT-4
[30] = test system: EKVX
[31] = test system: HL-60
[32] = test system: SN12C
[33] = test system: UO-31
[34] = test system: LOX IMVI
[35] = test system: T47D
[36] = test system: COLO 205
[37] = test system: OVCAR-4
[38] = test system: SK-MEL-28
[39] = test system: HCC 2998
[40] = test system: HT-29
[41] = test system: TK-10
[42] = test system: RXF 393
[43] = test system: SF-268
[44] = test system: U-251
[45] = test system: HCT-15
[46] = test system: RPMI-8226
[47] = test system: HOP-62
[48] = test system: SK-MEL-2
[49] = test system: IGROV-1
[50] = test system: K562
[51] = test system: MCF7
[52] = test system: UACC-62
[53] = test system: BT-549
[54] = test system: HOP-92
[55] = test system: NCI-H226
[56] = test system: NCI-H522
[57] = test system: OVCAR-8
[58] = test system: PC-3

With N/C(=N\Nc1ccc(Cl)cc1)c1cnccn1 the GI50 [1] was > 100 µM (inactive), the GI50 [2] was > 100 µM (inactive) and the GI50 [3] was 28.3 µM (inactive). The GI50 [4] was > 100 µM (inactive), the GI50 [5] was > 100 µM (inactive) and the GI50 [6] was > 100 µM (inactive). The GI50 [7] was 21.1 µM (inactive), the GI50 [8] was 22.4 µM (inactive) and the GI50 [9] was 5.71 µM (inactive). The GI50 [10] was 95.9 µM (inactive), the GI50 [11] was 64.3 µM (inactive) and the GI50 [12] was 6.64 µM (inactive). The GI50 [13] was 13.2 µM (inactive), the GI50 [14] was 16.3 µM (inactive) and the GI50 [15] was > 100 µM (inactive). The GI50 [16] was > 100 µM (inactive), the GI50 [17] was > 100 µM (inactive) and the GI50 [18] was > 100 µM (inactive). For the same molecule, the GI50 [19] was 28.6 µM (inactive), the GI50 [20] was 68.7 µM (inactive) and the GI50 [21] was > 100 µM (inactive). For the same molecule, the GI50 [22] was > 100 µM (inactive), the GI50 [23] was > 100 µM (inactive) and the GI50 [24] was 10.4 µM (inactive). The GI50 [25] was > 100 µM (inactive), the GI50 [26] was > 100 µM (inactive) and the GI50 [27] was 44 µM (inactive). For the same molecule, the GI50 [28] was 37.2 µM (inactive), the GI50 [29] was 39.8 µM (inactive) and the GI50 [30] was 81.7 µM (inactive). The GI50 [31] was 3.48 µM (inactive), the GI50 [32] was > 100 µM (inactive) and the GI50 [33] was 50.7 µM (inactive). For the same molecule, the GI50 [34] was 84.1 µM (inactive), the GI50 [35] was 13 µM (inactive) and the GI50 [36] was 18 µM (inactive). For the same molecule, the GI50 [37] was 29.1 µM (inactive), the GI50 [38] was 73.6 µM (inactive) and the GI50 [39] was 22.9 µM (inactive). For the same molecule, the GI50 [40] was 32.3 µM (inactive), the GI50 [41] was > 100 µM (inactive) and the GI50 [42] was > 100 µM (inactive). For the same molecule, the GI50 [43] was > 100 µM (inactive), the GI50 [44] was > 100 µM (inactive) and the GI50 [45] was 21.4 µM. The GI50 [46] was 78.3 µM (inactive), the GI50 [47] was 85.5 µM (inactive) and the GI50 [48] was 58.1 µM (inactive). The GI50 [49] was > 100 µM (inactive), the GI50 [50] was 3.85 µM (inactive) and the GI50 [51] was 38.5 µM (inactive). The GI50 [52] was 5.04 µM (inactive), the GI50 [53] was > 100 µM (inactive) and the GI50 [54] was > 100 µM (inactive). The GI50 [55] was 48.8 µM (inactive), the GI50 [56] was 28.3 µM (inactive) and the GI50 [57] was > 100 µM (inactive). For the same molecule, the GI50 [58] was 54.7 µM (inactive).
